Assay results: ChEMBL document CHEMBL5344452, “TYK2 Inhibitors for Treating Autoimmune and Inflammatory Diseases” (ACS Med Chem Lett, 2024)

target: Non-receptor tyrosine-protein kinase TYK2 (Homo sapiens, UniProt P29597); assay: Inhibition of human TYK2 JH2 domain (575 to 876 residues) incubated for 60 mins by TR-FRET assay
Sequence (P29597 whole entry, the tested form may be a part): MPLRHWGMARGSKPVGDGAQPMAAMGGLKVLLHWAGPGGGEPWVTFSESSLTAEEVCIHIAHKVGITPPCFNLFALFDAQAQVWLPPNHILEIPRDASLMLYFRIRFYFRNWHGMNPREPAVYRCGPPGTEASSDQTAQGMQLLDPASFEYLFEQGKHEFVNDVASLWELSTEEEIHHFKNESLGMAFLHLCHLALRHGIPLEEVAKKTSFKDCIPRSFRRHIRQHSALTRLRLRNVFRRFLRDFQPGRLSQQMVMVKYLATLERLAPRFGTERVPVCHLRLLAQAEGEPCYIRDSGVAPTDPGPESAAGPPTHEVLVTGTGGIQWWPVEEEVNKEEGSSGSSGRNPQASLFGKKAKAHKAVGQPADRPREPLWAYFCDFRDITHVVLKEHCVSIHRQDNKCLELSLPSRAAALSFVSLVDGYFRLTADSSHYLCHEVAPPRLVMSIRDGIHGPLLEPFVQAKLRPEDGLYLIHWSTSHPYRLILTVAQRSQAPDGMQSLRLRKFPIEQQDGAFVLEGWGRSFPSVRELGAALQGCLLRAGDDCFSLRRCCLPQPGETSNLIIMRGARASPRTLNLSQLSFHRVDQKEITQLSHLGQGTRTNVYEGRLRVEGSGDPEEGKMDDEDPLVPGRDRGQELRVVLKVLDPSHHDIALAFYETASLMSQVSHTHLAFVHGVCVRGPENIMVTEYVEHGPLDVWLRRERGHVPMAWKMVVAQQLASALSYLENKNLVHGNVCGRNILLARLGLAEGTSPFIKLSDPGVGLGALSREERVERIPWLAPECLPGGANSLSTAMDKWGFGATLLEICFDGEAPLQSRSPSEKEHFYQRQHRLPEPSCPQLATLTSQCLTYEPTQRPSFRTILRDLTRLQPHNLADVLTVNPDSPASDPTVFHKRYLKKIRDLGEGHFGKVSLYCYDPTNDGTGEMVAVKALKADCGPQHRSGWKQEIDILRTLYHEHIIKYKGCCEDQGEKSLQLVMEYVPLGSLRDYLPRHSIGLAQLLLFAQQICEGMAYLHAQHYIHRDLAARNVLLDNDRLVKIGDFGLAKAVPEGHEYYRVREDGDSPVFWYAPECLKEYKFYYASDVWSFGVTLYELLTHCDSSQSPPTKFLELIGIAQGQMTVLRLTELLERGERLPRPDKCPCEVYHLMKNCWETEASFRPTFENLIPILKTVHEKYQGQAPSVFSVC

Row | Structure (SMILES) | IC50
1 | CC(=O)Nc1cc2c(cn1)c(C)nn2-c1cccc(C2CCOC2)n1 (stereo unspecified) | ≤ 10 nM
2 | CC(=O)Nc1cc2c(cn1)c(-c1ccn(C)n1)nn2-c1ccnc(C(C)(F)F)n1 | ≤ 10 nM
3 | COC1CC(Oc2cc(C3CCOC3)nc(-n3nc(C4CC4)c4cnc(NC(C)=O)cc43)c2)C1 (stereo unspecified) | ≤ 10 nM
4 | CC(=O)Nc1cc2c(cn1)c(N1CC3(COC3)C1)nn2-c1nccc(C(C)(F)F)n1 | ≤ 10 nM

Now from value to compound:

Row | IC50 | Structure (SMILES)
5 | ≤ 10 nM | CC(=O)Nc1cc2c(cn1)c(-c1ccc(C)nc1)nn2-c1ccnc(C(C)(F)F)n1
6 | ≤ 10 nM | CC(=O)Nc1cc2c(cn1)c(C)nn2-c1nc(C2CCOC2)c(C)s1 (stereo unspecified)
